The record followed here is ChEMBL document CHEMBL2407034, “Discovery of AZD8931, an Equipotent, Reversible Inhibitor of Signaling by EGFR, HER2, and HER3 Receptors” (ACS Med Chem Lett, 2013).

Series [1] deals with T1, Receptor tyrosine-protein kinase erbB-2 (Homo sapiens, UniProt P04626). The series can be described thus: Inhibition of full-length HER2 phosphorylation transfected in human MCF-7 cl.24 cells after 4 hrs by laser scanning fluorescence microplate cytometry. The format is cell-based.
T1 sequence (P04626 whole entry, the tested form may be a part): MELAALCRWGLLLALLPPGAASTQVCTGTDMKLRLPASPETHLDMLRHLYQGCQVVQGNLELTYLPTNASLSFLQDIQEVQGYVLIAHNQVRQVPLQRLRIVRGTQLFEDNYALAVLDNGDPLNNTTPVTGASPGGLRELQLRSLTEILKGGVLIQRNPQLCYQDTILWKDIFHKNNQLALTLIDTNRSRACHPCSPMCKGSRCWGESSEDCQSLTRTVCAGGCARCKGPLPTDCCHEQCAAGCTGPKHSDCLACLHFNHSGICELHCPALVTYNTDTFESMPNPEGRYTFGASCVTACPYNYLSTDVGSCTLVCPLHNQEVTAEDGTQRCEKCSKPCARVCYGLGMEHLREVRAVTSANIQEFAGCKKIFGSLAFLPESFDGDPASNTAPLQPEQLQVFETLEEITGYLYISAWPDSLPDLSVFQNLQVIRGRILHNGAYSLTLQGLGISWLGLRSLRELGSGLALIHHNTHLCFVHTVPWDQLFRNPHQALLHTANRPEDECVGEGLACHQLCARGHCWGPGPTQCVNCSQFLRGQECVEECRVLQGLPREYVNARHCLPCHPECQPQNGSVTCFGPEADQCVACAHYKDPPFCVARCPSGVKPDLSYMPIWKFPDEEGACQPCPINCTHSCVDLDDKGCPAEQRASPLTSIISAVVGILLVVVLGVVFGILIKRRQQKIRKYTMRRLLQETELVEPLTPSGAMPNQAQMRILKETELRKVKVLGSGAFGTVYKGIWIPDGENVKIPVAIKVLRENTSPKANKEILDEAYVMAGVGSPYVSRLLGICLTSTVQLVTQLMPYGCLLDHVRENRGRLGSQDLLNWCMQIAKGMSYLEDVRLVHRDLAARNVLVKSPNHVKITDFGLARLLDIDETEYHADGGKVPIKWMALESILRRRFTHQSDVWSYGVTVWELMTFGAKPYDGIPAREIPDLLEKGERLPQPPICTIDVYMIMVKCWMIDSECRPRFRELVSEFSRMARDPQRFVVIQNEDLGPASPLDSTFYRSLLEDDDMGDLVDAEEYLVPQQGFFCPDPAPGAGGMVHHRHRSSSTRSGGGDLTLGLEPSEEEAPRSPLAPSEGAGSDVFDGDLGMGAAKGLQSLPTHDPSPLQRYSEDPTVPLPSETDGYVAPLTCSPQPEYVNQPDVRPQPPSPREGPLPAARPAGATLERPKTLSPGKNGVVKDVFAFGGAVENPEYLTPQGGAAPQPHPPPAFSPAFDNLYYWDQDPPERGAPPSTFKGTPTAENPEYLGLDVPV
In series [2] the target is T1, Receptor tyrosine-protein kinase erbB-2. Put plainly: Inhibition of human HER2 kinase domain expressed in baculovirus/Sf21 system by ELISA. (ELISA stands for enzyme-linked immunosorbent assay.)
Series [3] deals with LoVo. Put plainly: Antitumor activity against human LoVo cells xenografted in mouse assessed as tumor growth inhibition at 100 mg/kg, po qd. The conditions noted are these: read-out: TGI. The series is classed as functional. On the technique in general: A xenograft is tissue or cells of one species grown in another, often human tumour cells in immunodeficient mice.
A short description of series [4]: AUC in mouse at 50 mg/kg, po. The format is ADME, organism-based. Details: dose 50 mg/kg, route oral. The conditions noted are these: plasma.
Series [5] can be described thus: Lipophilicity, log D of the compound at pH 7.4. The format is physicochemical. The settings on record: buffer.
Series [6] has as its system KB. The series can be described thus: Antiproliferative activity against human KB cells. The format is functional, cell-based.
Series [7] is described as follows: Fraction unbound in human plasma. The format is ADME, cell-free.
Series [8] can be described thus: Fraction unbound in rat plasma. The format is ADME, cell-free.
Series [9] in a line: Bioavailability in AP-Wistar rat at 5 mg/kg, po and 2 mg/kg, iv. The settings on record: in vivo. The format is ADME, organism-based.
Series [10] deals with Cytochrome P450 2C9 (Homo sapiens, UniProt P11712). The series can be described thus: Inhibition of CYP2C9 (unknown origin). The format is ADME.
Sequence of Cytochrome P450 2C9 (P11712 whole entry): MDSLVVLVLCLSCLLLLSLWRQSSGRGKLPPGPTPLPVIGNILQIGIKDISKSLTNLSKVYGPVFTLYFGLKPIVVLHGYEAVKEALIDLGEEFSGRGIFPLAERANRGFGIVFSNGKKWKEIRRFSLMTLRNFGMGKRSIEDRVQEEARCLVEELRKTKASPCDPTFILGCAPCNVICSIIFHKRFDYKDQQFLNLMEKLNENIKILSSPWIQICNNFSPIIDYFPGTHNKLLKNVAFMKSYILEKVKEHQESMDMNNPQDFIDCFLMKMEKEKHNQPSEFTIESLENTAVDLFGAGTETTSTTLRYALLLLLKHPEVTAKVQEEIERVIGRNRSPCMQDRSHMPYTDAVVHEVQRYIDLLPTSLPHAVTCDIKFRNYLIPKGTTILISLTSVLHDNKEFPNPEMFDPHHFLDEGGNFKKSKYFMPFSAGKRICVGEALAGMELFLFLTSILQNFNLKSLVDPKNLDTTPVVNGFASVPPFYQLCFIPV
Series [11] deals with Cytochrome P450 2C19 (Homo sapiens, UniProt P33261). The series can be described thus: Inhibition of CYP2C19 (unknown origin). The format is ADME.
Sequence of Cytochrome P450 2C19 (P33261 whole entry): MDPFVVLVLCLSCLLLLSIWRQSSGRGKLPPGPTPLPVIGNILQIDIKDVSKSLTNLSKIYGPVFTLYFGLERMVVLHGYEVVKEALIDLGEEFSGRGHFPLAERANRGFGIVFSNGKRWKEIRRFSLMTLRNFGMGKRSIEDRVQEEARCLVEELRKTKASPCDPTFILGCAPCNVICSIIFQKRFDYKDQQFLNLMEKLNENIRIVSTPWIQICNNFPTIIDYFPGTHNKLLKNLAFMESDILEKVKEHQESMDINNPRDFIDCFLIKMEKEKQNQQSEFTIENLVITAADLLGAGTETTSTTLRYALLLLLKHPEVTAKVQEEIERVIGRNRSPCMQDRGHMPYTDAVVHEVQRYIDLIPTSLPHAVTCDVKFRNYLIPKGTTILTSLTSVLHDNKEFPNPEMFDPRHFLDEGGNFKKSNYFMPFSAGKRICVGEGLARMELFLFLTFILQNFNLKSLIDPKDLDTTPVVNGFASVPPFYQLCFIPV
The target in series [12] is T2, Cytochrome P450 1A2 (Homo sapiens, UniProt P05177).
T2 sequence (P05177 whole entry): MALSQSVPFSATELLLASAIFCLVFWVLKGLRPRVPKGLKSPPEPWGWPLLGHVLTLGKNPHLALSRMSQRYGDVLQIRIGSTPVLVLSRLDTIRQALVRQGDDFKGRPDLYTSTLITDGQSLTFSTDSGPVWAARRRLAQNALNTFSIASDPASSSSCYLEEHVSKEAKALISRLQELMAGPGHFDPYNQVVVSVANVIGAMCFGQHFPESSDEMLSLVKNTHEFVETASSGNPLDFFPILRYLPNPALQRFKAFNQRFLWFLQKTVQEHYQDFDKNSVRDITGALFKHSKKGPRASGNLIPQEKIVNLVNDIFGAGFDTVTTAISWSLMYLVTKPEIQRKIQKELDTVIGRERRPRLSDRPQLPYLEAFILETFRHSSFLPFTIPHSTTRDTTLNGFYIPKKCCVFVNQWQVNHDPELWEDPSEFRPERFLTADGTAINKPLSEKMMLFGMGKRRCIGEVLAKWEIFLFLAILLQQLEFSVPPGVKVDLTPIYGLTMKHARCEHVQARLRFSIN
Put plainly: Inhibition of CYP1A2 (unknown origin). The series is classed as ADME.

Series [13] in a line: Clearance in dog at 2 mg/kg, po and 1 mg/kg, iv. The series is classed as ADME, organism-based, Canis lupus familiaris. The conditions noted are these: in vivo.
Series [14] can be described thus: Volume of distribution at steady state in AP-Wistar rat at 5 mg/kg, po and 2 mg/kg, iv. The conditions noted are these: in vivo, read-out: Vdss. The series is classed as ADME, organism-based.
Series [15] in a line: Volume of distribution at steady state in dog at 2 mg/kg, po and 1 mg/kg, iv. The series is classed as ADME, organism-based, Canis lupus familiaris. The conditions noted are these: in vivo, read-out: Vdss.
The nature of series [16]: Aqueous solubility of the compound in phosphate buffer at pH 6.8. The series is classed as physicochemical.
For series [17], the target named is Cytochrome P450 2D6 (Homo sapiens, UniProt P10635). Put plainly: Inhibition of CYP2D6 (unknown origin). The format is ADME.
Sequence of Cytochrome P450 2D6 (P10635 whole entry): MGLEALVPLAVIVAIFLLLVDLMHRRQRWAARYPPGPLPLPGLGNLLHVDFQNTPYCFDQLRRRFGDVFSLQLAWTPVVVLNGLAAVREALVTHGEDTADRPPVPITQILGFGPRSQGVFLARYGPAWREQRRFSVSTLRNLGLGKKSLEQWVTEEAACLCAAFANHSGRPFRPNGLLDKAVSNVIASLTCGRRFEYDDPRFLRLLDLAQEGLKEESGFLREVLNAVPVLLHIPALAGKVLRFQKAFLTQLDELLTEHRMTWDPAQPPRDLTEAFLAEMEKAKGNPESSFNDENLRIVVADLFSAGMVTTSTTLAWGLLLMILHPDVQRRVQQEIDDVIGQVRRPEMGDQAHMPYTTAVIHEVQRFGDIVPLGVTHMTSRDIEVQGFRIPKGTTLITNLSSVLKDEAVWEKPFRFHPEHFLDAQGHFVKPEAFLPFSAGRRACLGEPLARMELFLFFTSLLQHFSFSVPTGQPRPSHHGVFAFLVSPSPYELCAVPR
The nature of series [18]: Bioavailability in dog at 2 mg/kg, po and 1 mg/kg, iv. The format is ADME, organism-based, Canis lupus familiaris. The settings on record: in vivo.
Series [19] can be described thus: Intrinsic clearance in human hepatocytes assessed per million cells. The format is ADME, cell-based, Hepatocyte. The conditions noted are these: read-out: CLH.
A short description of series [20]: Apparent permeability from apical to basolateral side of human Caco2 cells at 10 uM. The format is ADME, cell-based. The settings on record: Caco-2. A general note: Caco-2 cells form a polarised layer with tight junctions and transporters.
Series [21] can be described thus: Clearance in AP-Wistar rat at 5 mg/kg, po and 2 mg/kg, iv. The format is ADME, organism-based. The conditions noted are these: in vivo.

≈ marks a conversion by molar mass, not a printed value. A value given as a limit tells only on which side of the number the result lay.

As to `COCCNC(=O)CN1CCC(Oc2cc3c(Nc4cccc(Cl)c4F)ncnc3cc2OC)CC1`, the IC50 (as a rule, the concentration that inhibits the measured activity by half) was 250 nM in [1] and 91 nM in series [2].
In [1], `CNC(=O)CN1CCC(Oc2cc3c(Nc4cccc(Cl)c4F)ncnc3cc2OC)C1` (racemic) returned an IC50 of 250 nM.
Same read-out and setting: the same measure for `CNC(=O)CN1CCCC(Oc2cc3c(Nc4cccc(Cl)c4F)ncnc3cc2OC)C1` (racemic): 230 nM.
Consider `COc1cc2ncnc(Nc3cccc(Cl)c3F)c2cc1OC1CCN(CC(N)=O)CC1`, for which the inhibition in vivo at 100 mg/kg in series [3] was 36%. The AUC (in general, the area under the concentration-time curve, a measure of exposure) in series [4] turned out to be 19 µM·h. Further, the logD – broadly, lipophilicity at a set pH, counting ionised and neutral species – in series [5] is 3.1. In [6], the half-maximal inhibitory concentration (IC50) stood at 4 nM.
On to `CNC(=O)CN1CCC(Oc2cc3c(Nc4cc(Cl)ccc4F)ncnc3cc2OC)CC1`, for which half-maximal inhibition in series [1] (IC50) was put at 860 nM.
Same read-out and setting: the same measure for `CNC(=O)CN(C)CCOc1cc2c(Nc3cccc(Cl)c3F)ncnc2cc1OC`: 1500 nM.
For `COc1cc2ncnc(Nc3cccc(Cl)c3F)c2cc1OC1CCN(CC(=O)NC(C)C)CC1`, the IC50 in series [1] was found to be 410 nM; in [2], 110 nM.
Take `CNC(=O)CN1CCC(Oc2cc3c(Nc4ccc(F)c(Cl)c4)ncnc3cc2OC)CC1`: in [3], the inhibition in vivo at 100 mg/kg is 28%. The results for the fraction unbound in [7] and in series [8] were 0.027 and 0.029, respectively. This compound came in with an AUC in [4] of 19 µM·h. The pH-dependent lipophilicity (logD) in series [5] was 4. In series [1], this compound came in with an IC50 of 264 nM.
`CNC(=O)CN1CC(Oc2cc3c(Nc4cccc(Cl)c4F)ncnc3cc2OC)C1` returned an IC50 in series [1] of 1100 nM.
On the same count and under the same terms, the same measure for `CNC(=O)CN1CCC(Oc2cc3c(Nc4ccc(F)c(Cl)c4F)ncnc3cc2OC)CC1`: 89 nM.
For the compound `COc1cc2ncnc(Nc3cccc(Cl)c3F)c2cc1OC1CCN(CC(=O)N(C)C)CC1`, the IC50 came to 670 nM in series [1] and 220 nM in [2].
For the compound `CNC(=O)CN1CCC(Oc2cc3c(Nc4cccc(Cl)c4F)ncnc3cc2OC)CC1` [SAPITINIB], the bioavailability (usually the share of a dose that reaches the circulation, judged against a reference dose that is usually intravenous) worked out at 38% in series [9] and 89% in series [18]. For the same compound, in series [3], the inhibition in vivo at 100 mg/kg amounted to 76%. Further, the IC50 in series [10] is more than 10000 nM; in series [11] it was more than 10000 nM; in [12] it was more than 10000 nM; in [1], 60 nM; in [17], more than 10000 nM; in [2] it was 14 nM. For the same compound, the fraction unbound (in general, the share of the substance not bound to proteins or other matrix) in series [7] is 0.067; in [8], 0.072. In addition, the AUC in [4] was 66 µM·h. The clearance was 1.1 mL/min/kg in [13] and 13 mL/min/kg in series [21]. Moreover, the logD in [5] is 3.2. In addition, the Vd in series [14] came out at 0.8 L/kg; in [15] it was 0.2 L/kg. Also, the concentration in solution in series [16] (solubility) was 17 µM (≈ 8.06 µg/mL). Further, the hepatocyte CLint in series [19] was less than 4.5 µL/min/1e6 cells. In addition, the Papp A→B (usually the apparent permeability from the apical to the basolateral side of a cell layer) at 10 µM in series [20] was found to be 15.9 ×10⁻⁶ cm/s.
The compound `CNC(=O)CN1CCC(Oc2cc3c(Nc4cccc(Cl)c4)ncnc3cc2OC)CC1` gave a half-maximal inhibitory concentration (IC50) in [1] of 360 nM.
On to `CCNC(=O)CN1CCC(Oc2cc3c(Nc4cccc(Cl)c4F)ncnc3cc2OC)CC1`, for which the IC50 in series [1] was found to be 120 nM; in series [2], 33 nM.
On to `CNC(=O)CCN1CCC(Oc2cc3c(Nc4cccc(Cl)c4F)ncnc3cc2OC)CC1`, for which the half-maximal inhibitory concentration (IC50) in [1] was determined as 550 nM.
